From patent EP0323590A2, “Carbazoyl derivatives” (ONO PHARMACEUTICAL CO., LTD., priority 1987, dated 1989)
Counter-ions that a name gives are not always drawn.

System: Maillard reaction
Experiment: Inhibitory effect on Maillard reaction in vitro (BSA + glucose incubation, fluorescence)
Format: biochemical
Conditions: 6mM test compound, 100 mg/ml bovine serum albumin (BSA), 200 mM glucose, 0.5 M phosphatic buffer pH 7.38, a week at 37°C; fluorescence excitation 360nm, emission 450 nm
Description: In order to evaluate the inhibitory effect on Maillard reaction in vitro, of the compounds in the present invention, the measurement was carried out under conditions described below.
After incubation, the incubated medium was diluted 100 times with the same phosphatic buffer solution, and the fluorescence spectrum was measured at the excitation maximum of 360nm and the emission maximum of 450 nm.
Inhibition percentage of the test compounds was calculated by the following equation: [formula] ΔI₁ : fluorescence of test compounds ΔI₂ : fluorescence of (test compounds + glucose), ΔI₃ : fluorescence of (test compounds + BSA), ΔI₄ : fluorescence of (test compounds + BSA + glucose), ΔI : fluorescence of (BSA + glucose)

Row | SMILES | Inhibitory effect (%) (6mM)
1 | NNC(=O)C1CCCC1 [2(i), cyclopentancarbonylhydrozine] | 37
2 | Cl.NNC(=O)NCc1ccccc1 [1(f), 4-benzylsemicarbazide hydrochloride] | 90
3 | NNC(=O)NC1CCCCC1 [1(a), 4-cyclohexyl semicarbozide] | 100
4 | NNC(=O)CCc1ccccc1 [2(f), 3-phenylpropionohydrazide] | 100
5 | NC(N)=O [Urea, reference compound] | 28
6 | CN(N)C(=O)Nc1ccccc1.Cl [1(q), 2-methyl-4-phenylsemicarbazide hydrochloride] | 74
7 | NNC(=O)Nc1cccc2ccccc12 [1(j), 4-(1-naphthyl) semicorbazide hydrochloride] | 100
8 | Cl.Cl.NNC(=O)NCCCCCCNC(=O)NN [1(i), 4-[6-(3-aminoureido)hexyl]semicarbazide dihydrochloride] | 100
9 | CC(=O)NN [acetohydrazide] | 35
10 | Cl.NNC(=O)Nc1ccc(Cl)cc1 [1(e), 4-(4-chlorophenyl) semicarbazide hydrochloride] | 65
11 | NNC(=O)c1ccccc1N [Example 2(a), 2-aminobenzohydrazide] | 100
